Measurements taken from US8992891B2, “Therapeutic approaches for treating CMT and related disorders” (Pharnext, priority 2007, dated 2015).

Legend:
[1] = system: PMP22 protein; experiment: PMP22 protein expression analysis by flow cytometry (FACS) in Schwann cells; type: cell-based, rat; parameters: key to Protein (PMP22 expression decrease): +: significantly decreases PMP22 levels compared to control; conditions: for Protein (PMP22 expression decrease): rat primary Schwann cells, FACS, 24 hrs
Procedure: One day later, Schwann cells are stimulated by combinations of drugs or drugs alone during 24 hrs (3 wells/condition). The preparation of each compound is performed just prior to its addition to the cell culture medium. Drugs are added to a defined medium composed of DMEM-F12, with 1% Insulin-Transferrin-Selenium-X (ITS, Invitrogen #51300), 16 μg/ml of Putrescine, 0.02 μg/ml of corticosterone, 10 nM Progesterone and 50 μg/ml of gentamicin. The absence of Forskolin during drug stimulation avoids adenylate cyclase saturation. 8 hrs, 24 hrs and 48 hrs after drugs incubation, supernatants are recovered, centrifuged and frozen. SC are detached with trypsin-EDTA. As soon as the majority of cells are in suspension, the trypsin is neutralised using DMEM with 10% FCS. Supernatants with cells are recovered and centrifuged. The pellets of cells are transferred in micro tubes, washed in PBS once and fixed with a specific solution (AbCys #Reagent A BUF09B). 10 minutes later, cells are rinsed once with PBS and kept at 4° C. Five days after cell fixation, all cell preparations with different incubation times are labelled using the following protocol. […] Cells are then centrifuged at 7000 rpm for 5 minutes and cell pellets are rinsed once in PBS. A secondary antibody is added, coupled to Alexa Fluor 488 (goat anti-rabbit IgG, Molecular Probes #A11008, 1/100), for one hour at room temperature. Cells are then centrifuged at 7000 rpm for 5 minutes and cell pellets are rinsed once in PBS. The labelling is increased adding a tertiary antibody coupled to Alexa Fluor 488 (chicken anti-goat IgG, Molecular Probes #A21467, 1/100) for one hour incubation, at room temperature. Cells are then rinsed once in PBS. Control without any antibody (unlabelled cells) is performed to determine the level of autofluorescence and adapted the sensitivity of the photomultiplicators. Control with both secondary and tertiary antibodies but without primary antibody, is performed to assess non specific binding of antibodies. Data acquisition and analysis are performed with a FACS Array cytometer and FACS Array software (Becton Dickinson) on 5000 cells. Forward Scatter (FSC) correlated with cell volume (size) and Side Scatter (SSC) depending on inner complexity of cells (granularity) are analysed. For expression of PMP22, analysis is performed within the total cells and percent of positive cells is calculated. Positive cells are cells with fluorescence intensity higher than the control with secondary antibody. We tested the ability of some drugs to inhibit PMP22 protein expression (FACS analysis). […] The results of the action of some individual drugs on the protein level of PMP22 are also shown on table 1 above.

[2] = system: hemizygous PMP22 transgenic rat (CMT rat); experiment: Electrophysiological evaluation in CMT transgenic rats; type: in vivo; conditions: versus TG placebo group; for potential amplitude measured on the distal portion of the tail: CMT rats treated during 20 weeks
Excerpt: When appropriate, the rats are subjected to electrophysiological evaluation and histological measurement.

[3] = system: hemizygous PMP22 transgenic rat (CMT rat); experiment: Morphometrical analysis of hindlimb tissues and body weight in CMT rats; conditions: CMT female rats, end of study, versus control WT rats

Compound | Protein (PMP22 expression decrease) [1] | potential amplitude measured on the distal portion of the tail [2] | nerve conduction velocity (NCV) ([2]; CMT rats) | deficiencies of sciatic nerve and soleus muscle masses [3] | PMP22 protein expression, in words ([1]; Schwann cells in vitro, 24 hrs of incubation, compared to untreated controls)
Cn1cc[nH]c1=S [Methimazole] | + | significantly improved | not significantly affected | completely corrected | –
CC[C@@H]1C(=O)OC[C@@H]1Cc1cncn1C [Pilocarpine] | + | failed to reach statistical significance | – | – | decreases expression of the PMP22 protein
